The values below come from US20070160684A1, “Methods for increasing cancer cell chemosensitivity” (priority 2005, published 2007).

One series relates to Pa-4 cells. The settings on record: 4 mM caffeine or 1 μM Dox.
The test system of series [1] is H2AX phosphorylation. Description: Western analysis of H2AX phosphorylation in HeLa and HeLa/HMGA2 cells. The following applies: Dox. The format is cell-based. The protocol:
(§1) To ascertain whether HMGA2 effects Dox-induced ATM signaling activation, phosphorylation of ATM Ser1981 and H2AX Ser139 was assayed in the presence and absence of Dox (2 μM in ATM assays, 1 μM in H2AX assays). At various timepoints after Dox treatment, cell lysates were removed and subjected to Western analyses using monoclonal anti-phospho-ATM antibodies (Ser1981), polyclonal anti-ATM antibodies (Santa Cruz Biotechnology, Santa Cruz, Calif.), monoclonal anti-phospho-H2AX antibodies ([…]) (Upstate Cell Signaling), or anti-H2AX antibodies. Control Western analyses were performed using monoclonal anti-actin antibodies. […] HeLa and HeLa/HMGA2 cells
(§2) The effect of HMGA2 on ATM and H2AX phosphorylation in HeLa cells was measured using the protocol described above. […] As for H2AX, results were similar to those observed in Pa-4 cells.

Series [2] has as its system HS578T, HCC1419, and CHO cells. Description: MTT cell viability assay. The following applies: Dox 0 to 2.5 μM. (Tetrazolium assays rely on reduction of a dye to a coloured formazan, in cell work by metabolically active cells.)
Series [3] has as its system ATM Ser1981 phosphorylation. As to the kind of experiment: Western analysis of ATM phosphorylation in pEBS7 and YZ5 cells. Format: cell-based. The settings on record: 2 μM Dox. On the procedure:
ATM-deficient pEBS7 cells and ATM-proficient YZ5 cells were maintained in DMEM and 10% FBS with 100 μg/ml hygromycin at 37° C. with 5% CO2. pEBS7 and YZ5 are stable clones derived from ATM-deficient fibroblasts (AT22IJE-T) with empty vector and Flag-tagged wild-type ATM, respectively (Li 2000). Cells were treated with 2 μM Dox or vehicle only. At various time points after treatment, equal amounts of protein lysates were removed and subjected to Western analyses using monoclonal anti-phospho-ATM antibodies (Ser1981) (Upstate Cell Signaling, Waltham, Mass.).

Series [4] deals with H2AX Ser139 phosphorylation. As to the kind of experiment: Western analysis of H2AX phosphorylation in Pa-4 and Pa-4/HMGA2 cells. Format: cell-based. The following applies: 1 μM Dox. The protocol:
as §1
(§3) NU7026 (Calbiochem, San Diego, Calif.) was dissolved in DMSO at 5 mM and stored at −20° C. […] Cell lysates were removed and subjected to Western analyses using monoclonal anti-phospho-H2AX (Ser 139) antibodies. Control Western analyses were performed using monoclonal anti-actin antibodies.

Series [5] relates to H2AX phosphorylation. As to the kind of experiment: Western analysis of H2AX phosphorylation in HS578T and HCC1419 cells. Format: cell-based. The settings on record: 2 μM Dox. On the procedure:
as §3
Experiments were repeated using HS578T and HCC1419 cells treated with 2 μM rather than 1 μM Dox.

Series [6] concerns pSer15-p53 and pThr68-Chk2. Description: Western analysis of p53 and Chk2 phosphorylation in parental and engineered HeLa cells. Format: cell-based. The following applies: Dox (2 μM), HeLa/HMGA2 and HeLa/HMGA2(2K/R) cells. The protocol: pSer15-p53 and pThr68-Chk2 profiles following exposure to Dox in parental and engineered HeLa cells were assessed. […] Intriguingly, there was a noticeable accumulation of pSer15-p53 at 6 hours post-treatment and attenuation of pThr68-Chk2 at 2 hours post-treatment in HeLa/HMGA2 cells, compared with Dox-treated HeLa and HeLa/HMGA2(2K/R) cells. Together with results set forth in Example 25, HMGA2 appears to disrupt DNA damage response by interfering with the activation of DNA-PKcs, ATM and Chk2.

A further series has as its system ATM phosphorylation. As to the kind of experiment: Western analysis of ATM phosphorylation in HeLa and HeLa/HMGA2 cells. Format: cell-based. The settings on record: Dox. The protocol: as §1, §2
Series [7] deals with ATM Ser1981 phosphorylation. As to the kind of experiment: Western analysis of ATM phosphorylation in Pa-4 and Pa-4/HMGA2 cells. The format is cell-based. The following applies: 2 μM Dox.
The next series relates to caspase-3 and p53. As to the kind of experiment: Western analysis of caspase-3 cleavage and p53 levels. Format: cell-based. The settings on record: Dox.
The test system of a further series is topo IIα. As to the kind of experiment: Western analysis of steady-state topo II levels in HS578T cells. The settings on record: 1 μM Dox, various time points. The format is cell-based. On the procedure: HS578T cells were treated with 1 μM Dox, and at various time points cell lysates were removed and subjected to Western analyses using monoclonal anti-topo IIα antibody (BD Biosciences, San Jose, Calif.). Control Western analyses were performed using monoclonal anti-actin antibodies.

For series [8] the following is noted: in a subject; cited from earlier work.
For series [9], the system named is DNA-PKcs pT2609 and pS2056. As to the kind of experiment: Western analysis of DNA-PKcs phosphorylation. Format: cell-based. The protocol: Dox treatment has been reported to lead to rapid and transient phosphorylation of DNA-PKcs at Thr-2609 (pT2609) and Ser-2056 (pS2056), respectively (Chen 2005). Equal amounts of protein lysates from HeLa and HeLa/HMGA2 cells were treated with 2 μM or 5 μM Dox, then subjected to Western analyses using polyclonal anti-phospho-DNA-PKcs-T2609/S2056 (Dr. David Chen, Univ. of Texas Southwestern Medical Center) and monoclonal anti-DNA-PKcs antibodies (Santa Cruz, Calif.). Control lysates were treated with vehicle only. Untreated and Dox-treated MO59K (DNA-PKcs proficient) and MO59J (DNA-PKcs deficient) cells were used as an additional control to assure antibody specificity.
To confirm that HMGA2 expression is at least in part responsible for sustained DNA-PKcs pT2609 and pS2056 signals following Dox exposure, siRNA was utilized to downregulate endogenous HMGA2 expression in Hs578T cells. siRNA against HMGA2 (si-HMGA2) was described previously (Boo 2005). The sense and antisense were annealed to a working concentration of 20 μM by incubation with annealing buffer (5×: 30 mM HEPES pH 7.4, 100 mM potassium acetate, 2 mM magnesium acetate) at 90° C. for one minute followed by incubation at 37° C. for one hour. The annealed siRNA was stored at −20° C. Transfection of siRNA was performed with GeneEraser (Stratagene, Calif.) according to manufacturer's instruction. Briefly, cells were seeded to a confluency of 50% on the day of transfection. GeneEraser was pre-incubated at room temperature in serum-free medium ten minutes before the addition of siRNA. The GeneEraser/si-HMGA2 solution was then incubated at room temperature for an additional 15 minutes before addition to cells in a serum-containing medium. The cells were allowed to incubate for various time periods without any medium change post-transfection. Control cells were transfected with a scrambled siRNA. Cells were treated with Dox 48 hours after transfection.

Structures are written as SMILES.

Description for Pa-4 cells: Pa-4 and Pa-4/HMGA2 cells were seeded at 50-80% confluency in 35 mm dishes and serum starved overnight to synchronize cell cycle. […] Following treatment, cells were fixed in 70% ethanol overnight, stained with 20 μg/ml propidium iodide, and subjected to FACS analysis.
Apoptosis was quantified by assessing sub-G1 cell populations.

Turning to `COc1cccc2c1C(=O)c1c(O)c3c(c(O)c1C2=O)C[C@@](O)(C(=O)CO)C[C@@H]3O[C@H]1C[C@H](N)[C@H](O)[C@H](C)O1` [Dox, doxorubicin], the “apoptosis (sub-G1 cell population), single agent” value with Pa-4 cells is reported as “increase in apoptosis”. In addition, the “cell cycle distribution / cells in G2/M, single agent” value in the series with Pa-4 cells (48 hours) is reported as “greatly increased the number of cells in G2/M phase”. Further, the figures for the “induction of H2AX phosphorylation” value (in the series on H2AX phosphorylation [1]; in series [4] (Pa-4/HMGA2 cells)) were “ablation of Dox-mediated induction of phosphorylation” and “ablation of Dox-mediated induction of H2AX phosphorylation”, respectively. Moreover, the “sensitivity to growth inhibition, HS578T versus HCC1419 and CHO” value in [2] (72 hours) is listed as “HS578T cells were substantially more sensitive to Dox-mediated growth inhibition than the other two cell types”. Besides, the cell viability result in [2] (72 hours after treatment) is listed as “decreased cell viability in a dose-dependent manner in all three cell types”. For the same compound, in [3], the “ATM Ser1981 phosphorylation” value is “detected between 0.5 and 2 hours after Dox treatment”. Moreover, the H2AX phosphorylation entry in [4] (Pa-4 cells) is “rapid phosphorylation”; in the series with H2AX phosphorylation [5] (HCC1419 cells), “induced H2AX phosphorylation”; in the series with H2AX phosphorylation [5] (HS578T cells), “no increase in H2AX phosphorylation following Dox treatment”. The “pSer15-p53 and pThr68-Chk2 signals” value in series [6] is “caused induction of pSer15-p53 and pThr68-Chk2 signals”. The ATM phosphorylation result with ATM phosphorylation (HeLa cells) was “rapid phosphorylation of ATM in HeLa cells”; in the series on ATM phosphorylation (HeLa/HMGA2 cells) it was “no ATM phosphorylation was observed”; in [7] (Pa-4 cells), “rapid phosphorylation of ATM”. For the same compound, in series [7], the “ATM phosphorylation, Pa-4 versus Pa-4/HMGA2” value is “roughly equal in Pa-4 and Pa-4/HMGA2 cells”. Moreover, the caspase-3 cleavage fragment result in the series on caspase-3 and p53 is “increased in HeLa/HMGA2, HepG2 and Hs578T cells”. Further, the “steady-state p53 levels” value in the series with caspase-3 and p53 (HeLa, HeLa/HMGA2, CL48, and HepG2 cells) was “increased steady-state p53 levels”. The “steady-state topo II levels” value in the series on topo IIα is reported as “remained comparable over the time course of Dox treatment”. Moreover, in series [8], the “maximum cumulative dosage limited by side effects” value is 450 to 550 mg. The DNA-PKcs phosphorylation signals entry in series [9] (2 μM or 5 μM Dox, two hours, HeLa/HMGA2 cells) was “Accumulation of DNA-PKcs phosphorylation signals”. Besides, in series [9] (increasing concentrations of Dox), the “DNA-PKcs phosphorylation signals, Hs578T versus HCC1419” value is recorded as “recapitulated in HMGA2-expressing Hs578T breast cancer cells, but not in HMGA2-underexpressing HCC1419 breast cancer cells”.
